In this assay the target is recombinant human HPK1 (Homo sapiens (Human), UniProt Q92918). The assay is described as follows: HPK1 kinase assay (ADP-Glo). To be noted: 25 μM ATP, MBP substrate. Type of assay: biochemical. A digest of the protocol:
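Activity was read as ADP formed, detected by ADP-Glo luminescence after the reaction of 5 ng recombinant human HPK1 with MBP and ATP (stocks 0.5 μg/μl and 25 μM) for 40 min at 30 °C. Buffer was Tris pH 7.5 with MgCl2, BSA and DTT, with compound in 0.5% DMSO. IC50 came from inhibition curves.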

Where only a bound is given, the exact number is not on record here.

Sequence of recombinant human HPK1 (Q92918 whole entry): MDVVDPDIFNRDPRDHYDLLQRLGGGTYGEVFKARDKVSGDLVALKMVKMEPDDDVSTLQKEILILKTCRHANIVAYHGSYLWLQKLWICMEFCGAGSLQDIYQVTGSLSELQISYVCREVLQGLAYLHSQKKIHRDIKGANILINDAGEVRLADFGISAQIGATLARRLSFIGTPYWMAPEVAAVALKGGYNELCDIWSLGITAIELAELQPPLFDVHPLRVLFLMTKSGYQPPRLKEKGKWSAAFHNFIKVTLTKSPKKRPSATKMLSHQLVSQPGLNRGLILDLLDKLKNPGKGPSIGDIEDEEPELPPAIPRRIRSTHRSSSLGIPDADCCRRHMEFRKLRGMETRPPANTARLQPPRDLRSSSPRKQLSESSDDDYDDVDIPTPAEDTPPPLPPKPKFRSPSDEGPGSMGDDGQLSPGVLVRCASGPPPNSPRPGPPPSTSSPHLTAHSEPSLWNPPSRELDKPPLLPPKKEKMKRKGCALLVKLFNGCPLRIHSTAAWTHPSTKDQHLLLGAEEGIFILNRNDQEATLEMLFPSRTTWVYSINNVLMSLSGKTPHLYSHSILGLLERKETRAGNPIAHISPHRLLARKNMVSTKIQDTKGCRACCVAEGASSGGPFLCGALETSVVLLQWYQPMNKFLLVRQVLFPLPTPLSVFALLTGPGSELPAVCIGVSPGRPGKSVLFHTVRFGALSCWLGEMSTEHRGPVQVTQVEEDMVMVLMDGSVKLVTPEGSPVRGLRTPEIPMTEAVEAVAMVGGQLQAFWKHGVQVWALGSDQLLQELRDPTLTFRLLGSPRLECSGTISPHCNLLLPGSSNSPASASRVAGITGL

Turning to `CSc1c(F)c(F)c2[nH]ncc2c1-c1ccn2nc(NC(=O)[C@@H]3C[C@H]3F)cc2c1` [Example 599, (1S,2R)-N-(5-(6,7-difluoro-5-(methylthio)-1H-indazol-4-yl)pyrazolo[1,5-a]pyridin-2-yl)-2-fluorocyclopropane-1-carboxamide], the IC50 was under 100 nM.

Turning to `CSc1c(F)c(F)c2[nH]ncc2c1-c1ccn2nc(NC(=O)[C@H]3C[C@@H]3F)cc2c1` [Example 600, (1R,2S)-N-(5-(6,7-difluoro-5-(methylthio)-1H-indazol-4-yl)pyrazolo[1,5-a]pyridin-2-yl)-2-fluorocyclopropane-1-carboxamide], the IC50 was under 100 nM.

Consider `O=C(Nc1cc2cc(-c3c(Cl)c(F)c(Nc4ncccn4)c4[nH]ncc34)ccn2n1)[C@@H]1C[C@@H]1F` [Example 601, (1S,2S)-N-(5-(5-chloro-6-fluoro-7-(pyrimidin-2-ylamino)-1H-indazol-4-yl)pyrazolo[1,5-a]pyridin-2-yl)-2-fluorocyclopropane-1-carboxamide], for which the IC50 was under 100 nM.

As to `CCc1c(F)c(SC(C)(C)C#N)c2[nH]ncc2c1-c1ccn2nc(NC(=O)[C@@H]3C[C@@H]3F)cc2c1` [Example 603, (1S,2S)-N-(5-(7-((2-cyanopropan-2-yl)thio)-5-ethyl-6-fluoro-1H-indazol-4-yl)pyrazolo[1,5-a]pyridin-2-yl)-2-fluorocyclopropane-1-carboxamide], the 50% inhibitory concentration (IC50) is under 100 nM.

Take `CN(C)C(=O)c1c(F)cc(-c2ccn3nc(NC(=O)[C@@H]4C[C@@H]4F)cc3c2)c2cn[nH]c12` [Example 604, 6-fluoro-4-(2-((1S,2S)-2-fluorocyclopropane-1-carboxamido)pyrazolo[1,5-a]pyridin-5-yl)-N,N-dimethyl-1H-indazole-7-carboxamide]: the half-maximal inhibitory concentration (IC50) was in the range of 101 to 500 nM.

Take `CN(C)C(=O)c1c(F)cc2[nH]ncc2c1-c1ccn2nc(NC(=O)[C@@H]3C[C@@H]3F)cc2c1` [Example 605, 6-fluoro-4-(2-((1S,2S)-2-fluorocyclopropane-1-carboxamido)pyrazolo[1,5-a]pyridin-5-yl)-N,N-dimethyl-1H-indazole-5-carboxamide]: the 50% inhibitory concentration (IC50) is over 1000 nM.

For the molecule `CCOc1c(F)c(SC)c2[nH]ncc2c1-c1ccn2nc(NC(=O)[C@@H]3C[C@@H]3F)cc2c1` [Example 606, (1S,2S)-N-(5-(5-ethoxy-6-fluoro-7-(methylthio)-1H-indazol-4-yl)pyrazolo[1,5-a]pyridin-2-yl)-2-fluorocyclopropane-1-carboxamide], the IC50 was under 100 nM.

As for `O=C(Nc1cc2cc(-c3c(Cl)c(F)c(OC(F)(F)F)c4[nH]ncc34)ccn2n1)[C@@H]1C[C@@H]1F` [Example 607, (1S,2S)-N-(5-(5-chloro-6-fluoro-7-(trifluoromethoxy)-1H-indazol-4-yl)pyrazolo[1,5-a]pyridin-2-yl)-2-fluorocyclopropane-1-carboxamide], the half-inhibitory concentration (IC50) is under 100 nM.

Take `CCc1c(F)c(SC2(C#N)CC2)c2[nH]ncc2c1-c1ccn2nc(NC(=O)[C@@H]3C[C@@H]3F)cc2c1` [Example 608, (1S,2S)-N-(5-(7-((1-cyanocyclopropyl)thio)-5-ethyl-6-fluoro-1H-indazol-4-yl)pyrazolo[1,5-a]pyridin-2-yl)-2-fluorocyclopropane-1-carboxamide]: the IC50 is under 100 nM.

Consider `O=C(Nc1cc2cc(-c3c(Cl)c(F)c(Nc4ccncc4)c4[nH]ncc34)ccn2n1)[C@@H]1C[C@@H]1F` [Example 609, (1S,2S)-N-(5-(5-chloro-6-fluoro-7-(pyridin-4-ylamino)-1H-indazol-4-yl)pyrazolo[1,5-a]pyridin-2-yl)-2-fluorocyclopropane-1-carboxamide], for which the 50% inhibitory concentration (IC50) was under 100 nM.

Turning to `CCOc1c(F)c(N(C)C)c2[nH]ncc2c1-c1ccn2nc(NC(=O)[C@@H]3C[C@@H]3F)cc2c1` [Example 610, (1S,2S)-N-(5-(7-(dimethylamino)-5-ethoxy-6-fluoro-1H-indazol-4-yl)pyrazolo[1,5-a]pyridin-2-yl)-2-fluorocyclopropane-1-carboxamide], the IC50 is under 100 nM.

As to `CCOc1c(F)c(F)c2[nH]ncc2c1-c1ccn2nc(NC(=O)[C@@H]3C[C@@H]3F)cc2c1` [Example 611, (1S,2S)-N-(5-(5-ethoxy-6,7-difluoro-1H-indazol-4-yl)pyrazolo[1,5-a]pyridin-2-yl)-2-fluorocyclopropane-1-carboxamide], the half-maximal inhibitory concentration (IC50) is under 100 nM.

On to `CN(CC#N)C(=O)c1c(F)c(Cl)c(-c2ccn3nc(NC(=O)[C@@H]4C[C@@H]4F)cc3c2)c2cn[nH]c12` [Example 612, 5-chloro-N-(cyanomethyl)-6-fluoro-4-(2-((1S,2S)-2-fluorocyclopropane-1-carboxamido)pyrazolo[1,5-a]pyridin-5-yl)-N-methyl-1H-indazole-7-carboxamide], for which the IC50 was under 100 nM.

On to `CN(c1ncc(F)cn1)c1c(F)c(Cl)c(-c2ccn3nc(NC(=O)[C@@H]4C[C@@H]4F)cc3c2)c2cn[nH]c12` [Example 613, (1S,2S)-N-(5-(5-chloro-6-fluoro-7-((5-fluoropyrimidin-2-yl)(methyl)amino)-1H-indazol-4-yl)pyrazolo[1,5-a]pyridin-2-yl)-2-fluorocyclopropane-1-carboxamide], for which the half-maximal inhibitory concentration (IC50) was under 100 nM.

Consider `CN(c1ccncc1)c1c(F)c(Cl)c(-c2ccn3nc(NC(=O)[C@@H]4C[C@@H]4F)cc3c2)c2cn[nH]c12` [Example 614, (1S,2S)-N-(5-(5-chloro-6-fluoro-7-(methyl(pyridin-4-yl)amino)-1H-indazol-4-yl)pyrazolo[1,5-a]pyridin-2-yl)-2-fluorocyclopropane-1-carboxamide], for which the concentration for half-maximal inhibition (IC50) is under 100 nM.

Regarding `CC(=O)N(CC#N)c1c(F)c(Cl)c(-c2ccn3nc(NC(=O)[C@@H]4C[C@@H]4F)cc3c2)c2cn[nH]c12` [Example 615, (1S,2S)-N-(5-(5-chloro-7-(N-(cyanomethyl)acetamido)-6-fluoro-1H-indazol-4-yl)pyrazolo[1,5-a]pyridin-2-yl)-2-fluorocyclopropane-1-carboxamide], the IC50 is under 100 nM.

In the case of `CN(CCc1ccncc1)c1c(F)c(Cl)c(-c2ccn3nc(NC(=O)[C@@H]4C[C@@H]4F)cc3c2)c2cn[nH]c12` [Example 616, (1S,2S)-N-(5-(5-chloro-6-fluoro-7-(methyl(2-(pyridin-4-yl)ethyl)amino)-1H-indazol-4-yl)pyrazolo[1,5-a]pyridin-2-yl)-2-fluorocyclopropane-1-carboxamide], the IC50 was under 100 nM.

As for `CN(c1ncncn1)c1c(F)c(Cl)c(-c2ccn3nc(NC(=O)[C@@H]4C[C@@H]4F)cc3c2)c2cn[nH]c12` [Example 617, (1S,2S)-N-(5-(5-chloro-6-fluoro-7-(methyl(1,3,5-triazin-2-yl)amino)-1H-indazol-4-yl)pyrazolo[1,5-a]pyridin-2-yl)-2-fluorocyclopropane-1-carboxamide], the IC50 is under 100 nM.

On to `CN(c1nccnn1)c1c(F)c(Cl)c(-c2ccn3nc(NC(=O)[C@@H]4C[C@@H]4F)cc3c2)c2cn[nH]c12` [Example 618, (1S,2S)-N-(5-(5-chloro-6-fluoro-7-(methyl(1,2,4-triazin-3-yl)amino)-1H-indazol-4-yl)pyrazolo[1,5-a]pyridin-2-yl)-2-fluorocyclopropane-1-carboxamide], for which the half-inhibitory concentration (IC50) is under 100 nM.

As to `CC(C)Nc1c(F)c(Cl)c(-c2ccn3nc(NC(=O)[C@@H]4C[C@@H]4F)cc3c2)c2cn[nH]c12` [Example 619, (1S,2S)-N-(5-(5-chloro-6-fluoro-7-(isopropylamino)-1H-indazol-4-yl)pyrazolo[1,5-a]pyridin-2-yl)-2-fluorocyclopropane-1-carboxamide], the half-inhibitory concentration (IC50) is under 100 nM.

As to `CN(c1c(F)c(Cl)c(-c2ccn3nc(NC(=O)[C@@H]4C[C@@H]4F)cc3c2)c2cn[nH]c12)C1CCC1` [Example 620, (1S,2S)-N-(5-(5-chloro-7-(cyclobutyl(methyl)amino)-6-fluoro-1H-indazol-4-yl)pyrazolo[1,5-a]pyridin-2-yl)-2-fluorocyclopropane-1-carboxamide], the IC50 was under 100 nM.

`CCSc1c(F)c(Cl)c(-c2ccn3nc(NC(=O)[C@@H]4C[C@@H]4F)cc3c2)c2cn[nH]c12` [Example 621, (1S,2S)-N-(5-(5-chloro-7-(ethylthio)-6-fluoro-1H-indazol-4-yl)pyrazolo[1,5-a]pyridin-2-yl)-2-fluorocyclopropane-1-carboxamide]: the half-maximal inhibitory concentration (IC50) was under 100 nM.

Consider `CC(C)N(C)c1c(F)c(Cl)c(-c2ccn3nc(NC(=O)[C@@H]4C[C@@H]4F)cc3c2)c2cn[nH]c12` [Example 622, (1S,2S)-N-(5-(5-chloro-6-fluoro-7-(isopropyl(methyl)amino)-1H-indazol-4-yl)pyrazolo[1,5-a]pyridin-2-yl)-2-fluorocyclopropane-1-carboxamide], for which the IC50 is under 100 nM.

`CN1CCN(c2c(F)c(Cl)c(-c3ccn4nc(NC(=O)[C@@H]5C[C@@H]5F)cc4c3)c3cn[nH]c23)C1=O` [Example 623, (1S,2S)-N-(5-(5-chloro-6-fluoro-7-(3-methyl-2-oxoimidazolidin-1-yl)-1H-indazol-4-yl)pyrazolo[1,5-a]pyridin-2-yl)-2-fluorocyclopropane-1-carboxamide]: the 50% inhibitory concentration (IC50) was under 100 nM.

With `COC1CN(c2c(F)c(Cl)c(-c3ccn4nc(NC(=O)[C@@H]5C[C@@H]5F)cc4c3)c3cn[nH]c23)C1` [Example 624, (1S,2S)-N-(5-(5-chloro-6-fluoro-7-(3-methoxyazetidin-1-yl)-1H-indazol-4-yl)pyrazolo[1,5-a]pyridin-2-yl)-2-fluorocyclopropane-1-carboxamide], the IC50 is under 100 nM.

Regarding `CN(c1c(F)c(Cl)c(-c2ccn3nc(NC(=O)[C@@H]4C[C@@H]4F)cc3c2)c2cn[nH]c12)C1CC1` [Example 625, (1S,2S)-N-(5-(5-chloro-7-(cyclopropyl(methyl)amino)-6-fluoro-1H-indazol-4-yl)pyrazolo[1,5-a]pyridin-2-yl)-2-fluorocyclopropane-1-carboxamide], the concentration for half-maximal inhibition (IC50) was under 100 nM.

In the case of `O=Cc1c(F)c(Cl)c(-c2ccn3nc(NC(=O)[C@@H]4C[C@@H]4F)cc3c2)c2cn[nH]c12` [Example 626, (1S,2S)-N-(5-(5-chloro-6-fluoro-7-formyl-1H-indazol-4-yl)pyrazolo[1,5-a]pyridin-2-yl)-2-fluorocyclopropane-1-carboxamide], the half-maximal inhibitory concentration (IC50) was under 100 nM.

The values are drawn from patent publication US11649255B2, “Indazoles as hematopoietic progenitor kinase 1 (HPK1) inhibitors and methods using same” (1st Biotherapeutics, Inc., priority 2020, dated 2023).
